{"source": "patent US9624491B2", "about": "“Methods and compositions for the detection and treatment of cancer involving miRNAs and miRNA inhibitors and targets” (Memorial Sloan Kettering Cancer Center, priority 2010, dated 2017)", "key": {"[1]": {"tested_on": "3′UTR of Pten, Ppp2r5e, Prkaa1 and Bim", "assay": "Reporter assay for 3′UTR repression by miR-19", "assay_type": "cell-based", "conditions": "wild type vs mutated miR-19 binding sites", "text": "FIG. 14. Reporter assay for 3′ untranslated region (3′UTR) repression by miR-19. The 3′UTR of the indicated genes was subcloned into a dual luciferase reporter construct (pSiCheck2) and inhibition of the 3′UTR by miR-19 is indicated as mean±SD ratio of Renila to Firefly luciferase activity (RLuc/Luc). WT indicates the wild type 3′UTR. M indicates the 3′UTR where the miR-19 binding site has been mutated. In the case of Pten, one site (M1) or both sites (M1+M2) were mutated [* indicates significant (p<0.05) changes; ** indicates non-significant (p>0.05) changes.]\nThe Dock5, Ppp2r5e, Prkaa1, and Bim 3′-UTR fragments were generated by PCR and cloned into the psi-CHECK-2 vector (Promega). The assays were performed as described (Xiao, et al., 2008). Binding site mutants were generated by site-directed mutagenesis."}, "[2]": {"tested_on": "PPP2R5E, PRKAA1, BIM, PTEN, Bnip3, phosphorylated S6", "assay": "Immunoblot on lysates of transduced FL5-12 cells", "assay_type": "cell-based, murine", "description": "Immunoblots were performed from whole cell lysates as described (Wendel, et al., 2004). Briefly, 50 μg of protein/sample were resolved on SDS-PAGE gels and transferred to Immobilon-P-membranes (Millipore). Antibodies were against Prkaa1 (2532, 1:1000, Cell Signaling), Bim/Bcl2L11 (AAP-330, 1:1000, Assay Designs), FoxO1 (94545, 1:1000, Cell Signaling), FoxO3a (9467, 1:1000, Cell Signaling) Phospho-FoxO3a (94665, 1:1000, Cell Signaling), Ppp2r5e (NB 100-845, NOVUS), Pten (9559, 1:1000, Cell Signaling), tubulin (1:5000; Sigma, B-5-1-2), actin (1:5000; Sigma, AC-15), Bnip3 (3769, 1:1000, Cell Signaling), phosphorylated S6 (2215, 1:1000, Cell Signaling), phosphorylated Akt (4058, 1:1000, Cell Signaling) and Dock5 [a generous gift from Alan Hall (MSKCC)]. Enhanced chemiluminescence was used for detection (ECL, Amersham)."}, "[3]": {"tested_on": "FL5-12/Bcl2 cells", "assay": "Complementation studies in FL5-12 cells stably expressing Bcl2", "assay_type": "cell-based, murine", "conditions": "shifted from complete to IL3 deficient media", "description": "The relative contribution of the novel miR-19 targets was assessed. The pro-apoptotic BIM protein opposes BCL2 and is an important regulator of lymphocyte survival (Bouillet, et al., 1999). To assess whether miR-19 has Bim-independent effects, complementation studies were conducted with FL5-12 cells engineered to stably express Bcl2 (FL5-12/Bcl2 cells). […] Similarly, expression of miR-19 was associated with continued proliferation in the presence of metformin-activated AMP kinase or expression of Pten or Pp2r5e (FIG. 16)."}, "[4]": {"tested_on": "NOTCH1-induced T-ALL", "assay": "Mouse model of Notch-ICN (NOTCH1)-induced T-ALL, adoptive transfer of transduced HPCs", "assay_type": "in vivo", "conditions": "HPCs expressing NOTCH1-ICN plus miRNA or shRNA transplanted into irradiated recipients", "description": "Can miR-19 drive the development of lymphatic malignancies in vivo? Based on the miR-19 expression and translocation data, miR-19 was assessed in a mouse model of T-ALL (Pear, et al., 1996). Briefly, most cases of T-ALL carry mutations in the Notch1 gene, and, like the […] translocation, these generate the constitutively active intracellular domain of NOTCH1 (Notch-ICN) (Weng, et al., 2004). To test miR-19's ability to promote Notch-ICN-induced T-ALL in vivo, HPCs were adoptively transferred into irradiated recipients (FIG. 3d). […] At the same time, 80% of the mice receiving HPCs expressing only Notch-ICN remained disease free (p=0.0003) (FIG. 3e).\nThe mouse models of Notch1-induced T-ALL and the EμMyc lymphoma based on adoptive transfer of retrovirally transduced HPCs have been reported (Pear, et al., 1996), (Wendel, et al., 2004). Data were analyzed in Kaplan-Meier format using the log-rank (Mantel-Cox) test for statistical significance. The p53 loss of heterozygosity polymerase chain reaction (LOH PCR) and immunophenotyping by surface marker analysis were as described (Wendel, et al., 2004).\nA murine model of NOTCH1-induced T-ALL was used to directly test the oncogenic potential of the most promising miRNAs in vivo. Briefly, HPCs were transduced with NOTCH1 together with either empty vector or an miRNA and transplanted into irradiated, syngeneic recipients. Animals were monitored for leukemia onset by regular blood counts (FIG. 22a). […] Typically, animals receiving HPCs transduced with these miRNAs develop an acute leukemia by 75 days, while >80% of vector controls or animals receiving miR-30 (n=5, p=0.15) remain disease free at this time (FIG. 22b). Based on the in vitro screen and prediction, additional miRNAs were tested. […] Thus, miR-19b, miR-20a, miR-26a, miR-223 and also the less abundant miR-27a and miR-148/152 behave as oncogenes in a murine T-ALL model.\nThe mouse T-ALL model has been reported (Pear, et al., 1996), (Wendel, et al., 2004). Data were analyzed in Kaplan-Meier format using the log-rank (Mantel-Cox) test for statistical significance. […]"}}}
{"substance": "miR-19: miRNA of the 17˜92 cluster, UGUGCAAAUCCAUGCAAAACUGA (SEQ ID NO: 2); seed family in Table 3 (expressed or natural sequence; listed as Homo sapiens)", "values": [{"measurement": "3′UTR inhibition (RLuc/Luc)", "setting": "[1]", "value": "direct 3′ untranslated region (UTR) inhibition via the miR-19 binding sites"}, {"measurement": "Bnip3 protein", "setting": "[2]; FL5-12 cells", "value": "neither miR-19 nor the antagomir had an effect on Bnip3"}, {"measurement": "PTEN protein", "setting": "[2]; FL5-12 cells", "value": "no detectable effect on PTEN protein"}, {"measurement": "miR-19 target protein levels", "setting": "[2]; FL5-12 cells", "value": "clear reduction in PPP2R5E, PRKAA1, and BIM"}, {"measurement": "ribosomal S6 phosphorylation", "setting": "[2]; FL5-12 cells withdrawn from IL3 for 12 hours", "value": "directly activated ribosomal S6 phosphorylation"}, {"measurement": "enrichment of GFP-expressing FL5-12/Bcl2 cells", "setting": "[3]", "value": "continued enrichment in the presence of Bcl2"}, {"measurement": "leukemia onset / leukemia-free survival", "setting": "[4]", "value": "rapidly succumbed to T-ALL"}, {"measurement": "leukemia onset / leukemia-free survival", "setting": "[4]; listed as miR-19b", "value": "disease acceleration"}]}
